# B1: QF: transcriptional activator from the Neurospora crassa qa gene cluster, binds 16-base pair sequence (QUAS) (protein, UniProt P11638 1-816, looked up)
# Transcription factor qa-1f: MPPKRKTLNAAAEANAHADGHADGNADGHVANTAASSNNARFADLTNIDTPGLGPTTTTLLVEPARSKRQRVSRACDQCRAAREKCDGIQPACFPCVSQGRSCTYQASPKKRGVQTGYIRTLELALAWMFENVARSEDALHNLLVRDAGQGSALLVGKDSPAAERLHARWATSRVNKSITRLLSGQAAQDPSEDGQSPSEDINVQDAGAKTSDFPHAPHLTFSAPKSSTAETRTLPGPVRPPISANTLENNLQPDGTGIGKLPPNHWRLLDIYFSYTHSWLPILEKKDMYQALYQYSEQGSLLPSANVESGVHAELWSALALASFQAAATAASSATGPASAAHGHDNAINPSPADISDTARKLIPLESGPFQVQHCRALLLLCLVSLGRDDWESAWLLVGFAVRVLLVVRTQLPPDDDRPRPRMRALLVACFIVDTIVSMRHNVPAHLKPDDIADLPLPEDGQDQWEPWTPCEGLGGEHTMLQMLRNPAYPLSTFNHLYGVTKLVALELLPRIRTSSQNAPLEFRSRLQQVIGHNSPFSVFVLSQDTASAFVPTAYLTRTVYLWAAAFSEPLNEHYSHLLIETLDQYQKRFGTYAIPPLIPSLLDSLLALKKQSHSSERHRRHLEELFPAYSSIWPRGGRHSNTGLQPIRQLELPPTATATASIMPHVMEQPLSTSINPVNDRFNGIPNPTPYNSDAALDAITQTNDYGSVNTHGILSTYPPPATHLNEASVALAPGGAPPRPPPPYVDSTTNHPPYHSNLVPMANFGYSTVDYDAMVDDLASIEYTDAVDVDPQFMTNLGFVPGCNFSDISTYEQ
# B2: GAL4: budding yeast transcription factor of the GAL4/UAS binary expression system (protein, UniProt P04386 1-881, looked up)
# Regulatory protein GAL4: MKLLSSIEQACDICRLKKLKCSKEKPKCAKCLKNNWECRYSPKTKRSPLTRAHLTEVESRLERLEQLFLLIFPREDLDMILKMDSLQDIKALLTGLFVQDNVNKDAVTDRLASVETDMPLTLRQHRISATSSSEESSNKGQRQLTVSIDSAAHHDNSTIPLDFMPRDALHGFDWSEEDDMSDGLPFLKTDPNNNGFFGDGSLLCILRSIGFKPENYTNSNVNRLPTMITDRYTLASRSTTSRLLQSYLNNFHPYCPIVHSPTLMMLYNNQIEIASKDQWQILFNCILAIGAWCIEGESTDIDVFYYQNAKSHLTSKVFESGSIILVTALHLLSRYTQWRQKTNTSYNFHSFSIRMAISLGLNRDLPSSFSDSSILEQRRRIWWSVYSWEIQLSLLYGRSIQLSQNTISFPSSVDDVQRTTTGPTIYHGIIETARLLQVFTKIYELDKTVTAEKSPICAKKCLMICNEIEEVSRQAPKFLQMDISTTALTNLLKEHPWLSFTRFELKWKQLSLIIYVLRDFFTNFTQKKSQLEQDQNDHQSYEVKRCSIMLSDAAQRTVMSVSSYMDNHNVTPYFAWNCSYYLFNAVLVPIKTLLSNSKSNAENNETAQLLQQINTVLMLLKKLATFKIQTCEKYIQVLEEVCAPFLLSQCAIPLPHISYNNSNGSAIKNIVGSATIAQYPTLPEENVNNISVKYVSPGSVGPSPVPLKSGASFSDLVKLLSNRPPSRNSPVTIPRSTPSHRSVTPFLGQQQQLQSLVPLTPSALFGGANFNQSGNIADSSLSFTFTNSSNGPNLITTQTNSQALSQPIASSNVHDNFMNNEITASKIDDGNNSKPLSPGWTDQTAYNAFGITTGMFNTTTMDDVYNYLFDDEDTPPNPKKE
# Columns and labels:
# [1] = tested on: QS inhibition of ET40-QF driven QUAS-mtdT-HA expression; assay: Quinic acid feeding of flies: derepression of QS (fluorescence imaging of adult flies); assay type: in vivo, Drosophila
# Description: (§1) Quinic acid feeding of flies: Quinic acid containing medium was made as follows: a few holes were made in standard fly medium with wooden sticks, and 0.3 ml of freshly made D-(−)-quinic acid (Sigma-Aldrich, 98%, Catalog #138622) solution dissolved in water was added per 10 ml of medium. Vials were allowed to air-dry overnight. […] For assaying the effect of quinic acid on developing animals, approximately 10 males and 15 females per vial of the genotype ET40-QF, QUAS-mtdT-3xHA (II); 82B^FRT tubP-QS (III) were allowed to lay eggs for 6 hours on quinic acid containing medium. Animals fed upon and developed in the quinic acid containing food. Adult flies were imaged within 3 days of eclosion. For assaying the effect of quinic acid feeding on adult flies, approximately 30 adult flies per vial of genotype ET40-QF, QUAS-mtdT-3xHA (II); 82B^FRT tubP-QS (III) were allowed to feed on quinic acid medium for the listed times in FIG. 3D. For feedings over multiple days, flies were transferred to fresh quinic acid containing food every two days.
# Imaging of adult flies: Adult flies were imaged on a Qlmaging Retiga 2000R Cooled Monochrome Digital camera using a Discovery V8 Pentafluor System (Zeiss) with a DS RED filter cube.
# [2] = Stability of quinic acid in fly food, judged by derepression activity; assay type: physicochemical; settings: food stored for at least a week at 18° C.
# Description: as §1
# [3] = tested on: UAS-luc2 reporter (GAL4 activation, GAL80 repression) in Drosophila S2 cells; assay: Dual luciferase reporter assay in transiently transfected Drosophila S2 cells, UAS-luc2 reporter (GAL4/GAL80); assay type: cell-based
# Description: (§2) S2 Cell Transfection: S2 cells (gift of M. Simon, Stanford University) were maintained in Shields and Sang M3 insect medium (Sigma, Catalog #S8398), prepared according to the manufacturer's instructions and supplemented with 10% heat inactivated fetal bovine serum (FBS) and antibiotics (from 100× penicillin/streptomycin stock, Invitrogen, Catalog #15140). FBS was heat inactivated at 56° C. for 30 minutes. The cells were grown in an air incubator at 25° C. For transfection, 0.4 ml of complete M3 medium containing 5*10^5 Drosophila S2 cells were plated into individual wells of 24-well plates several hours before the transfection. The DNA for transfection was mini-prepped (QIAprep Miniprep kit, Qiagen, Catalog #27106), DNA concentrations were determined using the Nanoprop 1000 spectrophotometer (Thermo Scientific), diluted in 10 mM TRIS-HCl pH 7.5, 0.1 mM EDTA to 25 ng/μl, and filtered through a 13-mm 0.2 μm filter (Nalgene, Catalog #180-1320). For individual transfections, we used 0.2 μg of total DNA (total of 8 μl from 25 ng/μl stocks) including one or more of the following: 25 ng of reporter, 12.5 ng of a transcription factor plasmid and the amount or repressor plasmid that was adjusted according to the molarity of the corresponding transcription factor plasmid to get either equimolar, 3-fold or 5-fold higher molar concentration, as indicated. Each sample also contained 2.5 ng of pPAC5C-hRluc, which was used for normalization of the firefly luciferase signal for each sample (see below) and pBluescript to supplement the total DNA amount to 0.2 μg. The cells were transfected using Effectene (Qiagen, Catalog #301425) according to the manufacturer's protocol (for each sample we used: 59 μl EC buffer; 1.6 μl enhancer solution; 4 μl Effectene and 350 μl M3 medium). 12 h after the addition of transfection mixes to cells, quinic acid was added where indicated from 50× stocks. The starting quinic acid stock solution (250 mg/ml) was prepared from D-(−)-quinic acid (Sigma-Aldrich, 98%, Catalog #138622) in sterile Milli-Q water and neutralized with NaOH to pH˜7. All other 50× stocks were made from this stock by dilution in water. Cells were lysed 24 h after the addition of quinic acid (36 h since the start of transfection), by spinning the 24-well plates for 5′ in a table top centrifuge at ˜1000 g, removing the supernatant by aspiration and incubation with of 200 μl passive lysis buffer (from the Dual Luciferase Reporter Assay System by Promega, Catalog #E1910) with shaking at room temperature for ˜30 minutes. The lysates were transferred into 1.5 ml tubes and frozen at −80° C. The lysates were analyzed using the Dual Luciferase Reporter Assay System, according to the manufacturer's instructions, and the single tube Turner Biosystems luminometer, model 20/20n. The luminescence light signal for both firefly and Renilla luciferases was collected for 10 s. All samples that were transfected with reporters had at least 100-fold higher signal than the background (lysates from pBluescript-only transfected cells). For each sample “X”, the relative luciferase activity (RLA) was calculated according to the following formula: […] where n=number of QUAS-only samples; F=Firefly luciferase luminescence signal; R=Renilla luciferase luminescence signal. Each condition was executed at least in triplicate, the average and SEM were determined for each condition, and statistical significance was evaluated using Student's t-test. […]
# Flies = Flies kept on food containing high doses of quinic acid; assay type: in vivo, Drosophila; settings: 9 generations on food containing high doses of quinic acid
# Description: as §1
# [4] = tested on: QUAS-luc2 reporter (QF activation, QS repression) in Drosophila S2 cells; assay: Dual luciferase reporter assay in transiently transfected Drosophila S2 cells, QUAS-luc2 reporter (QF/QS); assay type: cell-based
# Description: as §2
# [5] = tested on: QUAS-luc2 reporter (QF activation, QS repression) in human HeLa cells; assay: Dual luciferase reporter assay in transiently transfected human HeLa cells, QUAS-luc2 reporter (QF/QS); assay type: cell-based
# Description: (§3) HeLa Cell Transfection: HeLa cells (gift of K. Wehner, Stanford University) were maintained in Dulbecco's Modified Eagle Medium (DMEM, Invitrogen, Catalog #10566), supplemented with 10% FBS and antibiotics (from 100× penicillin/streptomycin stock, Invitrogen, Catalog #15140) in a 37° C. air incubator with 5% CO2. At least 5 hours before transfection, cells were detached and dissociated from the plate using Triple-express (Invitrogen, Catalog #12605) and plated into 24-well plates at 7*10^4 cells in 0.5 ml medium with FBS, but without antibiotics. Cells were transiently transfected using Lipofectamine 2000 (Invitrogen, Catalog #11668-019), according to the manufacturer's instructions. Plasmid DNA for transfection was prepared as described in the S2 cell transfection protocol above. For each sample we used 0.25 μg DNA (total of 10 μl from 25 ng/μl stocks) including one or more of the following: 50 ng of reporter, 25 ng of a transcription factor plasmid and the amount or repressor plasmid that was adjusted according to the molarity of the corresponding transcription factor plasmid to get either equimolar, 3-fold or 5-fold higher molar concentration, as indicated.
# Each sample also contained 5 ng of pGL4.75 (hRluc/CMV from Promega), which was used for normalization of the firefly luciferase signal for each sample (see below), and pBluescript to supplement the total DNA amount to 0.25 μg. The DNA was mixed in 50 μl of Opti-MEM (Invitrogen, Catalog #51985) and combined with another 50 μl of Opti-MEM containing 1 μl of Lipofectamine. The medium containing the transfection mix was replaced with DMEM containing FBS and antibiotics 22 h after transfection. Where needed, the medium contained quinic acid supplemented from 50× stocks that were made as described in the S2 cell transfection protocol above. 24 h after the medium was changed, the cells were lysed in 24-well plates and processed as described above in the S2 cell transfection protocol. All samples that were transfected with reporters had at least 100-fold higher signal than the background (lysates from pBluescript-only transfected cells). […] Plasmids used for transfection in HeLa cells were: pUAS-luc2, pQUAS-luc2, pCMV-QF, pCMV-QS, pCMV-GAL4, pCMV-GAL80, pGL4.75 (Promega), pBluescript. Higher QS:QF or GAL80:GAL4 molar ratios are required for effective suppression in HeLa cells compared with Drosophila S2 cells. This phenomenon could be due to codon choice and/or differential activity or stability of activators and repressors at different temperatures—25° C. for S2 and 37° C. for HeLa.
# [6] = tested on: UAS-luc2 reporter (GAL4 activation) in human HeLa cells; assay: Dual luciferase reporter assay in transiently transfected human HeLa cells, UAS-luc2 reporter (GAL4); assay type: cell-based
# Description: as §3
# Each sample also contained 5 ng of pGL4.75 (hRluc/CMV from Promega), which was used for normalization of the firefly luciferase signal for each sample (see below), and pBluescript to supplement the total DNA amount to 0.25 μg. […]
# [7] = adult flies transferred to quinic acid-containing food
molecule,measurement,setting,value
"O=C(O)[C@]1(O)C[C@@H](O)[C@@H](O)[C@H](O)C1 [quinic acid, D-(−)-quinic acid]",derepression in flies fed for up to 10 days compared with 5 days,[1]; adult flies on quinic acid food,no more derepression
same,time after which reversion of suppression could be seen,[1]; [7],6 h
same,time of marked reversion of suppression,[1]; [7],24 h
same,time of saturation of reversion of suppression,[1]; [7],≤ 5 days
same,reversion of QS inhibition of ET40-QF driven QUAS-mtdT-HA expression with increasing doses,[1]; quinic acid added to fly food on which flies developed,increasingly reverted
same,stability in food,[2],appears to be stable
same,derepression of GAL4 (effect on GAL80 repression of GAL4),[3]; high concentration (5 mg/ml),~1.5 fold
same,effect on Gal4 activation of UAS,[3]; high concentration (5 mg/ml),no effect
same,abnormalities in flies,Flies,no noticeable abnormalities
same,suppression of QS to restore QF-based transcription,[4],significantly suppressed QS
same,effect on QF activation of QUAS,[4]; high concentration (5 mg/ml),no effect
same,"re-activation of QUAS compared to the control sample with QUAS, QF and 5xQS","[4]; highest QA concentration tested (QA3=5 mg/ml), 24 h",~23 fold
same,effect on QF-dependent transcription of QUAS,[5],no effect
same,suppression of QS in mammalian cells,[5]; also observed in COS cells,does not suppress QS
same,further suppression of QUAS activation in the presence of QF and 5xQS,"[5]; two higher QA concentrations tested (250 μg/ml, 5 mg/ml)",~13 fold
B1,"QF activation of UAS, fold less than that of QUAS",[3]; cross-activation,"~1,500 fold"
same,enhancement of luc2 expression from QUAS-luc2 compared with QUAS-luc2 alone,[4],~3.300 fold
same,induction of expression from QUAS,[5],~24.000 fold
B2,higher inducibility than QF/QUAS,[3],~1.6 fold
same,induction of luc2 expression from UAS-luc2,[3],"~5,300 fold"
same,"GAL4 activation of QUAS, fold less than that of UAS",[4]; cross-activation,~200 fold
same,induction of UAS,[6],~1000 fold

# From patent publication US20110277050A1, “SYSTEM AND METHODS TO CONTROL TRANSGENE EXPRESSION” (The Board of Trustees of the Leland Stanford Junior …, priority 2010, published 2011)
